Where a name gives a salt, the structure may show the parent alone.
target: T1, human V1a receptor (Homo sapiens, UniProt P37288); assay: human V1a receptor binding (3H-Vasopressin SPA, HEK293 membranes); settings: displacement of 4 nM 3H-Vasopressin, membranes of HEK293 cells transiently transfected with human V1a receptor; Ki from IC50 by Cheng-Prussoff
T1 construct: expressed in transfected cells; host or cells: HEK293 cells, transiently transfected; cell membranes
Summary of the method: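 Ki derived by Cheng-Prusoff from IC50 curves normalised to specific binding. Serially diluted compounds (in 2% DMSO) competed with 3H-vasopressin (4 nM working solution) for 1 h at room temperature on SPA beads bearing membranes of transiently transfected HEK293 cells; unlabelled vasopressin defined non-specific counts.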

T1 sequence (P37288 whole entry): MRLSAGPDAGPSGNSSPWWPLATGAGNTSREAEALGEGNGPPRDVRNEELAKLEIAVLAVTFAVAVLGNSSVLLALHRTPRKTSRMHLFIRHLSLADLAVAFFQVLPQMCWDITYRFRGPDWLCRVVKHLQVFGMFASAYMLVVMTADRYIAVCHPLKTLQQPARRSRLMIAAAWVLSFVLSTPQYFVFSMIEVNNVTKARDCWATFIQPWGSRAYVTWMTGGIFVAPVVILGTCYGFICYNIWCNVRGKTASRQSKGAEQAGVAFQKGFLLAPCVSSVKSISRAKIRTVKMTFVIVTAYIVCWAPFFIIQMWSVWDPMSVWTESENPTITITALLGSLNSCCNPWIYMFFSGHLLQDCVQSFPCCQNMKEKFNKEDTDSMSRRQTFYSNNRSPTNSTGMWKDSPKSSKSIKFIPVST

Structure (SMILES) | Ki
O=C(c1c[nH]c2cc(Cl)ccc12)N1CCC2(CC1)CNc1ccccc12 [Example 8, 1′-[(6-chloro-1H-indol-3-yl)carbonyl]-1,2-dihydrospiro[indole-3,4′-piperidine]] | 27.2 nM
Cc1c(C(=O)N2C[C@H](C)C3(OC(=O)c4ccccc43)[C@@H](C)C2)c2ccccc2n1Cc1ccccc1 (racemic) [Example 15, (SS,RR)-1′-[(1-benzyl-2-methyl-1H-indol-3-yl)carbonyl]-3′,5′-dimethyl-3H-spiro[2-benzofuran-1,4′-piperidin]-3-one] | 14.8 nM
CN1CCC(Cn2cc(C(=O)N3CCC4(CC3)OCc3ccccc34)c3ccc(Cl)cc32)C1 (stereo not shown) [Example 264, 1′-({6-Chloro-1-[(1-methylpyrrolidin-3-yl)methyl]-1H-indol-3-yl}carbonyl)-3H-spiro[2-benzofuran-1,4′-piperidine]] | 1.8 nM
O=C(c1c[nH]c2cc(Cl)ccc12)N1CCC2(CC1)C(=O)Nc1ccc(Br)cc12 [Example 280, 5-Bromo-1′-[(6-chloro-1H-indol-3-yl)carbonyl]spiro[indole-3,4′-piperidin]-2(1H)-one] | 67.6 nM
O=C(Cn1cc(C(=O)N2CCC3(CC2)CNc2ccccc23)c2ccc(Cl)cc21)c1ccccn1 [Example 101, 2-[6-Chloro-3-(1,2-dihydro-1′H-spiro[indole-3,4′-piperidin]-1′-ylcarbonyl)-1H-indol-1-yl]-1-pyridin-2-ylethanone] | 27.9 nM
COc1ccc2c(c1)C(=O)OC21CCN(C(=O)c2c(C)n(Cc3ccccc3)c3ccccc23)CC1 [Example 13, 1′-[(1-benzyl-2-methyl-1H-indol-3-yl)carbonyl]-5-methoxy-3H-spiro[2-benzofuran-1,4′-piperidin]-3-one] | 9.5 nM
CCN(CC)CCn1cc(C(=O)N2CCC3(CC2)COc2ccccc23)c2ccc(Cl)cc21 [Example 85, 2-[6-chloro-3-(1′H-spiro[1-benzofuran-3,4′-piperidin]-1′-ylcarbonyl)-1H-indol-1-yl]-N,N-diethylethanamine] | 10.2 nM
Cc1c(C(=O)N2CCC3(CC2)OC(=O)c2cc(F)ccc23)c2ccccc2n1Cc1ccccc1 [Example 23, 1′-[(1-benzyl-2-methyl-1H-indol-3-yl)carbonyl]-5-fluoro-3H-spiro[2-benzofuran-1,4′-piperidin]-3-one] | 11 nM
Cc1c(C(=O)N2CCC3(CC2)OCc2ccccc23)c2ccccc2n1Cc1ccccc1 [Example 39, 1′-[(1-benzyl-2-methyl-1H-indol-3-yl)carbonyl]-3H-spiro[2-benzofuran-1,4′-piperidine]] | 1.8 nM
CN(C)C(=O)Cn1cc(C(=O)N2CCC3(CC2)OCc2ccccc23)c2ccc(Cl)cc21 [Example 206, 2-[6-Chloro-3-(1′H,3H-spiro[2-benzofuran-1,4′-piperidin]-1′-ylcarbonyl)-1H-indol-1-yl]-N,N-dimethylacetamide] | 0.5 nM
O=C(c1c[nH]c2cc(Cl)ccc12)N1CCC2(CCc3ccccc32)CC1 [Example 6, 1′-[(6-chloro-1H-indol-3-yl)carbonyl]-2,3-dihydrospiro[indene-1,4′-piperidine]] | 19.7 nM
COc1ccc2c(c1)C1(CCN(C(=O)c3c(C)n(Cc4ccccc4)c4ccccc34)CC1)OC2=O [Example 12, 1′-[(1-benzyl-2-methyl-1H-indol-3-yl)carbonyl]-6-methoxy-3H-spiro[2-benzofuran-1,4′-piperidin]-3-one] | 3.4 nM
Cc1cc(Cn2cc(C(=O)N3CCC4(CC3)OCc3ccccc34)c3ccc(Cl)cc32)nn1C [Example 240] | 2 nM
CN(CCNC(=O)c1[nH]c2cc(Cl)ccc2c1C(=O)N1CCC2(CC1)OC(=O)c1cc(F)ccc12)C(=O)OC(C)(C)C [Example 30, tert-butyl {2-[({6-chloro-3-[(5-fluoro-3-oxo-1′H,3H-spiro[2-benzofuran-1,4′-piperidin]-1′-yl)carbonyl]-1H-indol-2-yl}carbonyl)amino]ethyl}methylcarbamate] | 5.8 nM
Cc1c(C(=O)N2CCC3(CC2)CNc2ccccc23)c2ccccc2n1Cc1ccccc1 [Example 9, 1′-[(1-benzyl-2-methyl-1H-indol-3-yl)carbonyl]-1,2-dihydrospiro[indole-3,4′-piperidine]] | 9.7 nM
O=C(c1cn(CCCN2CCOCC2)c2cc(Cl)ccc12)N1CCC2(CC1)OCc1ccccc12 [Example 257, 1′-{[6-Chloro-1-(3-morpholin-4-ylpropyl)-1H-indol-3-yl]carbonyl}-3H-spiro[2-benzofuran-1,4′-piperidine]] | 3.1 nM
Cc1c(C(=O)N2CCC3(CC2)OCc2ccccc23)c2ccccc2n1Cc1cc(F)cc(F)c1 [Example 52] | 2.1 nM
O=C1OC2(CCN(C(=O)c3cn(Cc4cc(F)cc(F)c4)c4cc(Cl)ccc34)CC2)c2ccc(F)cc21 [Example 142, 1′-{[6-Chloro-1-(3,5-difluorobenzyl)-1H-indol-3-yl]carbonyl}-5-fluoro-3H-spiro[2-benzofuran-1,4′-piperidin]-3-one] | 0.6 nM

The remaining lines, values ahead:

Ki | Structure (SMILES)
2.6 nM | O=C1OC2(CCN(C(=O)c3cn(Cc4cncnc4)c4cc(Cl)ccc34)CC2)c2ccc(F)cc21 [Example 174, 1′-{[6-Chloro-1-(pyrimidin-5-ylmethyl)-1H-indol-3-yl]carbonyl}-5-fluoro-3H-spiro[2-benzofuran-1,4′-piperidin]-3-one]
1.7 nM | CNC(=O)Cn1cc(C(=O)N2CCC3(CC2)OC(=O)c2cc(F)ccc23)c2ccc(Cl)cc21 [Example 116, 2-{6-Chloro-3-[(5-fluoro-3-oxo-1′H,3H-spiro[2-benzofuran-1,4′-piperidin]-1′-yl)carbonyl]-1H-indol-1-yl}-N-methylacetamide]
5 nM | O=C1OC2(CCN(C(=O)c3cn(-c4ccccn4)c4cc(Cl)ccc34)CC2)c2ccc(F)cc21 [Example 160, 1-[(6-Chloro-1-pyridin-2-yl-1H-indol-3-yl)carbonyl]-5-fluoro-3H-spiro[2-benzofuran-1,4′-piperidin]-3-one]
2.6 nM | O=C(c1cn(CCO)c2cc(Cl)ccc12)N1CCC2(CC1)OCc1ccccc12 [Example 259, 2-[6-Chloro-3-(1′H,3H-spiro[2-benzofuran-1,4′-piperidin]-1′-ylcarbonyl)-1H-indol-1-yl]ethanol]
4.3 nM | O=C(c1cn(CCNO)c2cc(Cl)ccc12)N1CCC2(CC1)OCc1ccccc12 [Example 262, 2-[6-Chloro-3-(1′H,3H-spiro[2-benzofuran-1,4′-piperidin]-1′-ylcarbonyl)-1H-indol-1-yl]-N-hydroxyethanamine]
15.1 nM | CNCCNC(=O)c1[nH]c2cc(Cl)ccc2c1C(=O)N1CCC2(CC1)OC(=O)c1cc(F)ccc12 [Example 194, 6-Chloro-3-[(5-fluoro-3-oxo-1′H,3H-spiro[2-benzofuran-1,4′-piperidin]-1′-yl)carbonyl]-N-[2-(methylamino)ethyl]-1H-indole-2-carboxamide hydrochloride]
3.1 nM | Cc1cc(Cn2cc(C(=O)N3CCC4(CC3)OC(=O)c3cc(F)ccc34)c3ccc(Cl)cc32)no1 [Example 179, 1′-({6-Chloro-1-[(5-methylisoxazol-3-yl)methyl]-1H-indol-3-yl}carbonyl)-5-fluoro-3H-spiro[2-benzofuran-1,4′-piperidin]-3-one]
3.4 nM | CN(C)C(=O)Cn1cc(C(=O)N2CCC3(CC2)CNc2ccccc23)c2ccc(Cl)cc21 [Example 100, 2-[6-Chloro-3-(1,2-dihydro-1′H-spiro[indole-3,4′-piperidin]-1′-ylcarbonyl)-1H-indol-1-yl]-N,N-dimethylacetamide]
2.3 nM | NCCNC(=O)Cn1cc(C(=O)N2CCC3(CC2)OCc2ccccc23)c2ccc(Cl)cc21 [Example 252, N-(2-Aminoethyl)-2-[6-chloro-3-(1′H,3H-spiro[2-benzofuran-1,4′-piperidin]-1′-ylcarbonyl)-1H-indol-1-yl]acetamide]
2.9 nM | O=C1OC2(CCN(C(=O)c3cn(Cc4ccc(Cl)nc4)c4cc(Cl)ccc34)CC2)c2ccc(F)cc21 [Example 164, 1′-({6-Chloro-1-[(6-chloropyridin-3-yl)methyl]-1H-indol-3-yl}carbonyl)-5-fluoro-3H-spiro[2-benzofuran-1,4′-piperidin]-3-one]
2.4 nM | O=C1OC2(CCN(C(=O)c3cn(Cc4ccncc4)c4cc(Cl)ccc34)CC2)c2ccc(F)cc21 [Example 166, 1′-{[6-Chloro-1-(pyridin-4-ylmethyl)-1H-indol-3-yl]carbonyl}-5-fluoro-3H-spiro[2-benzofuran-1,4′-piperidin]-3-one]
1.3 nM | CCN(CC)C(=O)Cn1cc(C(=O)N2CCC3(CC2)OC(=O)c2ccccc23)c2ccc(Cl)cc21 [Example 107, 2-{6-Chloro-3-[(3-oxo-1′H,3H-spiro[2-benzofuran-1,4′-piperidin]-1′-yl)carbonyl]-1H-indol-1-yl}-N,N-diethylacetamide]
3.3 nM | CC(C)(C)OC(=O)N1CCOC(Cn2cc(C(=O)N3CCC4(CC3)OC(=O)c3cc(F)ccc34)c3ccc(Cl)cc32)C1 (stereo not shown) [Example 199, tert-Butyl 2-({6-chloro-3-[(5-fluoro-3-oxo-1′H,3H-spiro[2-benzofuran-1,4′-piperidin]-1′-yl)carbonyl]-1H-indol-1-yl}methyl)morpholine-4-carboxylate]
1.1 nM | CN(CCn1cc(C(=O)N2CCC3(CC2)OCc2ccccc23)c2ccc(Cl)cc21)S(C)(=O)=O [Example 273, N-{2-[6-Chloro-3-(1′H,3H-spiro[2-benzofuran-1,4′-piperidin]-1′-ylcarbonyl)-1H-indol-1-yl]ethyl}-N-methylmethanesulfonamide]
3 nM | O=C1OC2(CCN(C(=O)c3cn(Cc4cccnc4)c4cc(Cl)ccc34)CC2)c2ccccc21 [Example 172, 1′-{[6-Chloro-1-(pyridin-3-ylmethyl)-1H-indol-3-yl]carbonyl}-3H-spiro[2-benzofuran-1,4′-piperidin]-3-one]
1.6 nM | O=C(Cn1cc(C(=O)N2CCC3(CC2)OCc2ccccc23)c2ccc(Cl)cc21)c1ccccn1 [Example 229, 2-[6-Chloro-3-(1′H,3H-spiro[2-benzofuran-1,4′-piperidin]-1′-ylcarbonyl)-1H-indol-1-yl]-1-pyridin-2-ylethanone]

— patent US7332501B2, “Indol-3-yl-carbonyl-spiro-piperidine derivatives as V1a receptor antagonists” (Hoffmann-La Roche Inc., priority 2005, dated 2008)
